We go through one compound from US9120728B2, “Modulators of cortical dopaminergic- and NMDA-receptor-mediated glutamatergic neurotransmission” (INTEGRATIVE RESEARCH LABORATORIES SWEDEN AB, priority 2011, dated 2015).

The test system of experiment [1] is drug-naive rats. As to the kind of experiment: Effects on spontaneous locomotion (locomotor activity in drug-naive rats). It is filed as in vivo, rat. As to conditions: recorded for 60 minutes immediately after drug administration. Here is the method: Prior art dopamine receptor antagonists are known to induce profound decrease in locomotor activity (catalepsy).
Behavioural activity is measured using eight Digiscan activity monitors (RXYZM (16) TAO, Omnitech Electronics, Columbus, Ohio, USA), connected to an Omnitech Digiscan analyzer and an Apple Macintosh computer equipped with a digital interface board (NB DIO-24, National Instruments, USA). Each activity monitor consists of a quadratic metal frame (W×L=40 cm×40 cm) equipped with photobeam sensors. During measurements of behavioural activity, a rat is put in a transparent acrylic cage (WxLxH, 40×40×30 cm) which in turn is placed in the activity monitor. Each activity monitor is equipped with three rows of infrared photobeam sensors, each row consisting of 16 sensors. Two rows are placed along the front and the side of the floor of the cage, at a 90° angle, and the third row is placed 10 cm above the floor to measure vertical activity. Photobeam sensors are spaced 2.5 cm apart. Each activity monitor is fitted in an identical sound and light attenuating box containing a weak house light and a fan.
The computer software is written using object oriented programming (LabVIEW®, National instruments, Austin, Tex., USA).
Behavioural data from each activity monitor, representing the position (horizontal center of gravity and vertical activity) of the animal at each time, are recorded at a sampling frequency of 25 Hz and collected using a custom written LABView™ application. The data from each recording session are stored and analyzed with respect to distance traveled. Each behavioural recording session lasts 60 min, starting approximately 4 min after the injection of test compound. Similar behavioural recording procedures are applied for drug-naïve and drug pre-treated rats. Rats pre-treated with d-amphetamine are given a dose of 1.5 mg/kg i.p. 10 min before the recording session in the activity monitor. Rats pre-treated with MK-801 are given a dose of 0.7 mg/kg i.p. 90 min before the recording session in the activity monitor. The results are presented as counts/60 minutes, or counts/30 minutes, in arbitrary length units. Statistical comparisons are carried out using Student's t-test against the control group. In MK-801 or amphetamine pre-treated animals, statistical comparisons are made against the MK801 or d-amphetamine controls, respectively.

The test system of experiment [2] is Arc gene expression. Briefly: Increase of Arc gene expression (Arc mRNA, real-time PCR) in rat striatum and cortex. It is filed as in vivo. As to conditions: estimated ED50 on increase of Arc gene expression. Here is the method: To investigate potential effects of compounds of the present invention on cortical and striatal NMDA receptor related synaptic signalling, Arc mRNA induction was assessed upon acute administration of a compound of the present invention. […]
Total RNA is prepared by the guanidin isothiocyanate method reported by Chomczynski & Sacchi [Chomczynski P & Sacchi N; Anal. Biochem. 1987 162 156-159]. […] The sample concentration was determined spectrophotometrically by a NanoDrop ND-1000. A quality indicator number and an integrity number of r-RNA were measured with an Experion (Bio-Rad) on random samples. […]
For real-time PCR measurements, 0.7 μl of the cDNA reaction was amplified in a 25 μl reaction mixture containing 1×PCR buffer, 0.2 mM dNTP, 3.7 mM MgCl2, 0.15 mM SYBR green, 0.4 μM of each primer, and 1U JumpStart Taq DNA polymerase. Real-time PCR was measured on CFX96 (Biorad) using the following settings for all genes, 60 s pre-incubation at 95° C., followed by 40 cycles of denaturation at 95° C. for 10 s, annealing at 56° C. for 10 s, and elongation at 72° C. for 10 s.
Initial DNA amounts were quantified by a standard curve constructed for every gene using 6 serial 4-fold dilutions of purified PCR products. […]
Arc gene amounts were normalised using the geometric mean of the amounts of the two house-keeping genes assessed (HPRT and cyclophilin A). […]

The structures appear in SMILES notation.

What is called ED50 is the dose that gives a 50% effect, or the effect in half of the subjects. On to `CCCNCCOc1cc(F)cc(S(C)(=O)=O)c1` [Example 1, N-[2-(3-fluoro-5-methylsulfonyl-phenoxy)ethyl]propan-1-amine], for which the Locomotor activity in experiment [1] (3.7 μmol/kg) is reported as 8049 counts/60 min; in experiment [1] (11 μmol/kg) it was 7325 counts/60 min; in experiment [1] (33 μmol/kg), 6025 counts/60 min. The 50% effective dose (ED50) in experiment [2] (rat (prefrontal) cortex, evaluated to be below the lowest dose) was under 11 µmol/kg; in experiment [2] (sc, rat striatum, systemic administration, 0-100 μmol/kg s.c.), 13 µmol/kg.
